The source of these data is ChEMBL document CHEMBL3045979, “Synthesis and antimicrobial activities of highly functionalised novel -lactam and thiazolidine-grafted tetrahydrobenzothiophenes” (2013).

Format in all cases: functional
One assay relates to Bacillus spizizenii. Description: Antibacterial activity against Bacillus subtilis subsp. spizizenii ATCC 6633 assessed as growth inhibition at 10 ug/mL after 24 hr by agar disk diffusion method. The settings on record: ATCC 6633, 24 h, read-out: DIZ. Background: A growth-free zone around the sample is the usual read-out of agar diffusion tests.
For another assay, the system named is Escherichia coli. As to the kind of experiment: Antibacterial activity against Escherichia coli ATCC 35218 assessed as growth inhibition at 10 ug/mL after 24 hr by agar disc diffusion method. The settings on record: ATCC 35218, 24 h, read-out: DIZ.
A further assay deals with Aspergillus fumigatus. Description: Antifungal activity against Aspergillus fumigatus ATCC 28212 assessed as growth inhibition at 10 ug/mL after 72 hr by agar cup plate method. The settings on record: ATCC 28212, 72 h, read-out: DIZ.
The subject of another assay is Aspergillus niger. As to the kind of experiment: Antifungal activity against Aspergillus niger ATCC 16404 assessed as growth inhibition at 10 ug/mL after 72 hr by agar cup plate method. The conditions noted are these: ATCC 16404, 72 h, read-out: DIZ.

For the compound `CS(=O)(=O)Nc1sc2c(c1C(=O)NN1C(=O)CSC1c1ccc([N+](=O)[O-])cc1)CCCC2` (stereo unspecified), the zone of inhibition at 10 µg/mL was determined as 8 mm in the assay on Bacillus spizizenii, 10 mm with Escherichia coli, 8 mm in the assay with Aspergillus fumigatus and 15 mm with Aspergillus niger.

As for `CC(=O)N1CCN(c2ccc(OCC3COC(Cn4ccnc4)(c4ccc(Cl)cc4Cl)O3)cc2)CC1` (stereo unspecified) [KETOCONAZOLE], the results for the zone of inhibition at 10 µg/mL in the assay on Aspergillus fumigatus and in the assay with Aspergillus niger were 10 mm and 25 mm, respectively.

`CS(=O)(=O)Nc1sc2c(c1C(=O)NN1C(=O)C(Cl)C1c1cccc([N+](=O)[O-])c1)CCCC2` (stereo unspecified): the zone of inhibition at 10 µg/mL in the assay on Bacillus spizizenii worked out at 7 mm; in the assay with Escherichia coli, 10 mm; in the assay on Aspergillus fumigatus, 8 mm; with Aspergillus niger, 18 mm.

Regarding `CS(=O)(=O)Nc1sc2c(c1C(=O)NN1C(=O)C(Cl)C1c1c[nH]c3ccccc13)CCCC2` (stereo unspecified), the zone of inhibition at 10 µg/mL in the assay with Bacillus spizizenii stood at 7 mm; in the assay with Escherichia coli it was 9 mm; with Aspergillus fumigatus, 7 mm; with Aspergillus niger it was 12 mm.

For the compound `Clc1ccccc1C(c1ccccc1)(c1ccccc1)n1ccnc1` [CLOTRIMAZOLE], the zone of inhibition at 10 µg/mL in the assay on Aspergillus fumigatus stood at 20 mm; with Aspergillus niger, 21 mm.

Turning to `CS(=O)(=O)Nc1sc2c(c1C(=O)NN1C(=O)C(Cl)C1c1ccc([N+](=O)[O-])cc1)CCCC2` (stereo unspecified), the zone of inhibition at 10 µg/mL worked out at 8 mm with Bacillus spizizenii, 10 mm in the assay with Escherichia coli, 6 mm in the assay on Aspergillus fumigatus and 16 mm with Aspergillus niger.

In the case of `CS(=O)(=O)Nc1sc2c(c1C(=O)NN1C(=O)CSC1c1ccccc1)CCCC2` (stereo unspecified), the zone of inhibition at 10 µg/mL was determined as 5 mm with Bacillus spizizenii, 6 mm in the assay on Escherichia coli, 5 mm with Aspergillus fumigatus and 9 mm with Aspergillus niger.

Turning to `CS(=O)(=O)Nc1sc2c(c1C(=O)NN1C(=O)C(Cl)C1c1coc3ccccc3c1=O)CCCC2` (stereo unspecified), the zone of inhibition at 10 µg/mL is 6 mm in the assay on Bacillus spizizenii, 8 mm with Escherichia coli, 7 mm in the assay with Aspergillus fumigatus and 14 mm in the assay with Aspergillus niger.

In the case of `COc1ccc(C2SCC(=O)N2NC(=O)c2c(NS(C)(=O)=O)sc3c2CCCC3)cc1OC` (stereo unspecified), the zone of inhibition at 10 µg/mL is 6 mm in the assay on Bacillus spizizenii, 7 mm with Escherichia coli, 6 mm with Aspergillus fumigatus and 12 mm with Aspergillus niger.

As to `CS(=O)(=O)Nc1sc2c(c1C(=O)NN1C(=O)CSC1c1cc3ccccc3nc1Cl)CCCC2` (stereo unspecified), the zone of inhibition at 10 µg/mL in the assay with Bacillus spizizenii worked out at 6 mm; with Escherichia coli, 8 mm; in the assay with Aspergillus fumigatus, 8 mm; with Aspergillus niger, 19 mm.

Turning to `CS(=O)(=O)Nc1sc2c(c1C(=O)NN1C(=O)CSC1c1ccccc1Cl)CCCC2` (stereo unspecified), the zone of inhibition at 10 µg/mL with Bacillus spizizenii was determined as 6 mm; in the assay with Escherichia coli it was 11 mm; with Aspergillus fumigatus, 6 mm; in the assay with Aspergillus niger, 20 mm.

On to `CS(=O)(=O)Nc1sc2c(c1C(=O)NN1C(=O)CSC1c1c[nH]c3ccccc13)CCCC2` (stereo unspecified), for which the zone of inhibition at 10 µg/mL with Bacillus spizizenii came out at 6 mm; with Escherichia coli, 10 mm; in the assay with Aspergillus fumigatus it was 6 mm; in the assay on Aspergillus niger, 18 mm.

For `COc1ccc(C2C(Cl)C(=O)N2NC(=O)c2c(NS(C)(=O)=O)sc3c2CCCC3)cc1` (stereo unspecified), the zone of inhibition at 10 µg/mL in the assay with Bacillus spizizenii worked out at 6 mm; with Escherichia coli, 8 mm; in the assay with Aspergillus fumigatus, 6 mm; in the assay on Aspergillus niger, 12 mm.

Take `COc1ccc(C2C(Cl)C(=O)N2NC(=O)c2c(NS(C)(=O)=O)sc3c2CCCC3)cc1OC` (stereo unspecified): the zone of inhibition at 10 µg/mL in the assay with Bacillus spizizenii turned out to be 7 mm; in the assay on Escherichia coli, 8 mm; in the assay with Aspergillus fumigatus, 9 mm; in the assay with Aspergillus niger, 21 mm.

Regarding `CS(=O)(=O)Nc1sc2c(c1C(=O)NN1C(=O)CSC1c1coc3ccccc3c1=O)CCCC2` (stereo unspecified), the zone of inhibition at 10 µg/mL in the assay with Bacillus spizizenii is 7 mm; in the assay with Escherichia coli, 7 mm; in the assay with Aspergillus fumigatus, 4 mm; with Aspergillus niger, 12 mm.

Take `CS(=O)(=O)Nc1sc2c(c1C(=O)NN1C(=O)CSC1c1cccc([N+](=O)[O-])c1)CCCC2` (stereo unspecified): the zone of inhibition at 10 µg/mL in the assay on Bacillus spizizenii is 7 mm; in the assay on Escherichia coli it was 7 mm; in the assay on Aspergillus fumigatus, 6 mm; in the assay on Aspergillus niger it was 14 mm.

Regarding `CS(=O)(=O)Nc1sc2c(c1C(=O)NN1C(=O)C(Cl)C1c1ccc(Cl)cc1)CCCC2` (stereo unspecified), the zone of inhibition at 10 µg/mL in the assay with Bacillus spizizenii is 8 mm; with Escherichia coli, 9 mm; in the assay on Aspergillus fumigatus, 5 mm; in the assay on Aspergillus niger, 13 mm.

Take `O=C(O)c1cn(C2CC2)c2cc(N3CCNCC3)c(F)cc2c1=O` [CIPROFLOXACIN]: the zone of inhibition at 10 µg/mL in the assay with Bacillus spizizenii was 9 mm; in the assay on Escherichia coli, 12 mm.

Turning to `CS(=O)(=O)Nc1sc2c(c1C(=O)NN1C(=O)C(Cl)C1c1ccccc1)CCCC2` (stereo unspecified), the zone of inhibition at 10 µg/mL with Bacillus spizizenii turned out to be 6 mm; with Escherichia coli, 6 mm; in the assay with Aspergillus fumigatus it was 4 mm; in the assay with Aspergillus niger it was 13 mm.

Take `CS(=O)(=O)Nc1sc2c(c1C(=O)NN1C(=O)C(Cl)C1c1ccccc1Cl)CCCC2` (stereo unspecified): the zone of inhibition at 10 µg/mL in the assay with Bacillus spizizenii came to 7 mm; in the assay with Escherichia coli it was 7 mm; in the assay on Aspergillus fumigatus it was 6 mm; in the assay on Aspergillus niger, 15 mm.

Consider `CS(=O)(=O)Nc1sc2c(c1C(=O)NN1C(=O)CSC1c1ccc(Cl)cc1)CCCC2` (stereo unspecified), for which the zone of inhibition at 10 µg/mL in the assay with Bacillus spizizenii came out at 8 mm; with Escherichia coli, 8 mm; with Aspergillus fumigatus, 7 mm; in the assay on Aspergillus niger, 13 mm.

As for `CS(=O)(=O)Nc1sc2c(c1C(=O)NN1C(=O)C(Cl)C1c1cc3ccccc3nc1Cl)CCCC2` (stereo unspecified), the zone of inhibition at 10 µg/mL in the assay with Bacillus spizizenii was 6 mm; in the assay on Escherichia coli it was 6 mm; with Aspergillus fumigatus, 6 mm; in the assay with Aspergillus niger, 22 mm.

Consider `COc1ccc(C2SCC(=O)N2NC(=O)c2c(NS(C)(=O)=O)sc3c2CCCC3)cc1` (stereo unspecified), for which the zone of inhibition at 10 µg/mL in the assay with Bacillus spizizenii stood at 5 mm; with Escherichia coli it was 11 mm; in the assay with Aspergillus fumigatus, 6 mm; with Aspergillus niger it was 14 mm.
